The values below come from EP0325187B1, “4-alkyl-1, 4-dihydropyridines with PAF-antagonist activity” (ALTER, S.A., priority 1988, dated 1989).

In experiment [1] the test system is RABBIT PLATELETS
The experiment in a line: Platelet release reaction (ATP release, luciferin/luciferase) induced by PAF. In kind it is cell-based, rabbits (male, albino, New Zealand). The following applies: Oryctolagus cuniculus, read-out: % […] REACTION, compound 10 µM, 1-PAF 1.92 nM, pre-incubation 5 minutes, average of six experiments in triplicate. The procedure:
(§1) • 1. STUDIES ON WASHED PLATELETS • 1.1.Aggregation The suspensions of washed platelets were obtained from the blood of rabbits (male, albino, New Zealand) anticoagulated with a citric acid-dextrose solution in the proportion 1:6 (v:v.) The platelet rich plasma (PRP) was obtained by centrifuging the blood samples at 100xg for 10 minutes and the platelet suspensions by centrifuging the PRP at 1,800xg for 15 minutes at 4° C. The pellet thus obtained was washed twice with Tyrode buffer containing citric acid, PGE₁ and apirase, pH 6.5. The platelets thus washed were finally resuspended in Hepes-Tyrode buffer, pH 7.35, supplemented with bovine albumin serum at 0.35 %; Ca⁺⁺2 mM. The final concentration of platelets was adjusted to 300,000 platelets/µl. The aggregation was measured turbidimetrically using a lumiaggregometer (Chrono-Log Co., Haventon, PA, USA) at 37° C under stirring at 1,100 r.p.m. The study was also carried out on aliquots of PRP pre-incubated with the compounds under study at 37° C for 5 minutes. The concentration of the antagonists were in all cases 10 µM and aggregation was induced by adding L-PAF diluted in 5 µl of Hepes buffer/albumin, with a final concentration 1.9 x 10⁻⁹M. • 1.2. Release reaction The platelet secretion was measured in the presence of luciferin/luciferase with ATP release in accord with the method described by Feinman et al. (1977.) • 2. STUDIES ON ANESTHETIZED RATS Hypotension induced by an intravenous injection of PAF-aceter. Male Sprague-Dawley rats anesthetized with pentobarbital (50 mg/kg., intraperitoneally) were used.

Experiment [2] has as its system RABBIT PLATELETS
As to the kind of experiment: Aggregation of washed platelets induced by PAF (turbidimetric, lumiaggregometer). Type of experiment: cell-based, rabbits (male, albino, New Zealand). The following applies: Oryctolagus cuniculus, Platelet; compound 10 µM; 1-PAF 1.92 nM; pre-incubation 5 minutes; average of six experiments in triplicate. The procedure:
as §1

`CC1=C(C(=O)OCCSc2ccccc2)C(C)C(C(=O)OCC2CCCO2)=C(C)N1` (stereo not shown) [Example 10, 2-(phenylthio)ethyl-2,6-dimethyl-4-methyl 5-(2-tetrahydrofurfuryloxycarbonyl)-1,4-dihydropyridin-3-carboxylate]: the inhibition at 10 µM in the experiment on RABBIT PLATELETS [1] turned out to be 49%; in the experiment on RABBIT PLATELETS [2], 11%.

Consider `CCCC1C(C(=O)OCC)=C(C)NC(C)=C1C(=O)OCCSC` (stereo not shown) [Example 7, 2-(methylthio)ethyl-2,6-dimethyl-5-ethoxycarbonyl-4-n-propyl-1,4-dihydropyridin-3-carboxylate], for which the inhibition at 10 µM stood at 50% in the experiment with RABBIT PLATELETS [1] and 14% in the experiment on RABBIT PLATELETS [2].

In the case of `CCOC(=O)C1=C(C)NC(C)=C(C(=O)OCCSC)C1C` (stereo not shown) [Example 3, 2,6-(methylthio)ethyl-2,6 dimethyl-5-ethoxycarbonyl-4-methyl-1,4-dihydropyridin-3-carboxylate], the inhibition at 10 µM in the experiment with RABBIT PLATELETS [1] is 78%; with RABBIT PLATELETS [2], 21%.

For `COC(=O)C1=C(C)NC(C)=C(C(=O)OCCSC)C1C` (stereo not shown) [Example 2, 2-(methylthio)ethyl-2,6-dimethyl-4-methyl-5-methoxycarbonyl-1,4-dihydropyridin-3-carboxylate], the inhibition at 10 µM in the experiment on RABBIT PLATELETS [1] is 75%; in the experiment on RABBIT PLATELETS [2] it was 26%.

Turning to `CCOC(=O)C1=C(C)NC(C)=C(C(=O)OCCSC)C1CC` (stereo not shown) [Example 6, 2-(methylthio)ethyl-2,6-dimethyl-4-ethyl-5-ethoxycarbonyl-1,4-dihydropyridin-3-carboxylate], the values for the inhibition at 10 µM with RABBIT PLATELETS [1] and in the experiment on RABBIT PLATELETS [2] were 89% and 32%, respectively.

On to `CC1=C(C(=O)OCCSc2ccccc2)C(C)C(C(=O)OC(C)C)=C(C)N1` (stereo not shown) [Example 11, 2-(phenylthio)ethyl-2,6-dimethyl-5-isopropoxycarbonyl-4-methyl-1,4-dihydropyridin-3-carboxylate], for which the inhibition at 10 µM in the experiment with RABBIT PLATELETS [1] amounted to 89%; with RABBIT PLATELETS [2], 33%.

As to `CCSCCOC(=O)C1=C(C)NC(C)=C(C(=O)OC)C1C` (stereo not shown) [Example 1, 2-(ethylthio)ethyl-2,6-dimethyl-4-methyl-5-methoxycarbonyl-1,4-dihydropyridin-3-carboxylate], the inhibition at 10 µM with RABBIT PLATELETS [1] stood at 96%; in the experiment on RABBIT PLATELETS [2], 44%.

On to `CCOC(=O)C1=C(C)NC(C)=C(C(=O)OCCSCC)C1C` (stereo not shown) [Example 4, 2-(ethylthio)ethyl-2,6-dimethyl-5-ethoxycarbonyl-4-methyl-1,4-dihydropyridin-3-carboxylate], for which the inhibition at 10 µM amounted to 89% with RABBIT PLATELETS [1] and 32% in the experiment on RABBIT PLATELETS [2].

`CCOC(=O)C1=C(C)NC(C)=C(C(=O)OCCSc2ccccc2)C1C` (stereo not shown) [Example 9, 2-(phenylthio)ethyl-2,6-dimethyl-5-ethoxycarbonyl-4-methyl-1,4-dihydropyridin-3-carboxylate]: the inhibition at 10 µM with RABBIT PLATELETS [1] and in the experiment with RABBIT PLATELETS [2] was 100% each time.

On to `COC(=O)C1=C(C)NC(C)=C(C(=O)OCCSc2ccccc2)C1C` (stereo not shown) [Example 12, 2-(phenylthio)ethyl-2,6-dimethyl 4-methyl-5-methoxycarbonyl-1,4-dihydropyridin-3-carboxylate], for which the inhibition at 10 µM in the experiment on RABBIT PLATELETS [1] and with RABBIT PLATELETS [2] was 100% each time.

`CCCC1C(C(=O)OCC)=C(C)NC(C)=C1C(=O)OCCSCC` (stereo not shown) [Example 8, 2-(ethylthio)ethyl-2,6-dimethyl-5-ethoxycarbonyl-4-n-propyl-1,4-dihydropyridin-3-carboxylate]: the values for the inhibition at 10 µM in the experiment on RABBIT PLATELETS [1] and in the experiment on RABBIT PLATELETS [2] were 69% and 30%, respectively.
